Source: article PMC6385203, “Mutations in the palm domain disrupt modulation of acid-sensing ion channel 1a currents by neuropeptides” (Scientific Reports, 2019)
Peptide text beside a SMILES is read from it.

Target: T1, WT ASIC1a (Homo sapiens, UniProt P78348)
T1 construct: expressed in transfected cells; host or cells: Xenopus laevis oocytes injected with cRNA
T1 sequence (P78348 1-528): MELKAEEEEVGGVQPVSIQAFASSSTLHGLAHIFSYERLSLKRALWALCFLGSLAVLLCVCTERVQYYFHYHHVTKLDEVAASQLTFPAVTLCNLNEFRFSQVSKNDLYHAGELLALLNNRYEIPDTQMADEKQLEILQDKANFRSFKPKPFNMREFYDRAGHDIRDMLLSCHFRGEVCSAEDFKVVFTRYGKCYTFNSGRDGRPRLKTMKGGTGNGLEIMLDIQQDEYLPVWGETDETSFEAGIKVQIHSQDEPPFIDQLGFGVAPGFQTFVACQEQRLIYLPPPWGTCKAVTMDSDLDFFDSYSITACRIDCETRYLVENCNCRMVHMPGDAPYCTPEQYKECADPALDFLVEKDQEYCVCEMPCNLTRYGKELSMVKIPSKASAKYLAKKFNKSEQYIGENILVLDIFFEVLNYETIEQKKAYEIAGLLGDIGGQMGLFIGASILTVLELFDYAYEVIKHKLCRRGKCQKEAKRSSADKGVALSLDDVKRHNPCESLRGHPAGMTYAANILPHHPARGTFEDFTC
Assay: Isust/Ipeak, TEVC in Xenopus oocytes, WT
Format: cell-based
Conditions: FRRFa in pH7.4 conditioning and pH5 solution, mean ± SEM, n = 7–12, read-out: EC50 for induction of sustained current (Isust/Ipeak)
Experimental: ASIC1a function was measured by two-electrode voltage-clamp after recombinant expression in Xenopus oocytes. The channels were activated by a pH5 stimulation solution from a conditioning solution of pH7.4. […] We measured the rate of FRRFa unbinding, as the disappearance of the sustained current after a 50-s incubation with 50 μM FRRFa, as 0.025 ± 0.005 s^−1 (n = 8, Fig. 2b). […] To determine the kinetics of FRRFa association on ASIC1a, we pre-applied the peptide at a concentration of 50 μM for different time periods in the conditioning solution and measured the sustained current fraction.
Human ASIC1a[43] had been subcloned into a vector for transcription that contained 5′- and 3′-untranslated regions of Xenopus β-globin mRNA[44]. Point mutations were introduced using QuikChange (Agilent, Basel, Switzerland). Mutations were verified by sequencing (Synergene Biotech, Zurich, Switzerland). Expression in Xenopus laevis oocytes was carried out as described previously. […]
Electrophysiological measurements were performed 1–2 days after cRNA injection. Ion currents were recorded using two-electrode voltage-clamp at a holding potential of −60 mV with a Dagan TEV-200 amplifier (Minneapolis, MN). […] The amplitude of the sustained current was measured in the last two seconds of the pH5 perfusion. […]

`N=C(N)NCCC[C@H](NC(=O)[C@H](CCCNC(=N)N)NC(=O)[C@@H](N)Cc1ccccc1)C(=O)N[C@@H](Cc1ccccc1)C(N)=O` [FRRFa, Phe-Arg-Arg-Phe-amide] (H-FRRF-NH2) gave an EC50 of 37 ± 15 µM.
